US9469643B2, “Polymorphic forms of (S)-2-(1-(9H-purin-6-ylamino)propyl)-5-fluoro-3-phenylquinazolin-4(3H)-one” (GILEAD CALISTOGA LLC, priority 2012, dated 2016)
Values after ≈ are worked out from the molar mass of the structure shown. Like-named read-outs stand apart in the source and are kept apart here.

What was measured:
Format in all cases: physicochemical
[1] = Hydrate screen in ethanol/water system: solid form
Experimental: (§1) About 50 mg of Form I of (S)-2-(1-(9H-purin-6-ylamino)propyl)-5-fluoro-3-phenylquinazolin-4(3H)-one was slurried in either (A) a 1-mL mixture of a isopropyl alcohol (IPA) and water, or (B) a 1-mL mixture of ethanol and water, for several days at room temperature. As used herein, water activity (aw) in liquid phase corresponds to relative humidity in the atmosphere. For example, 0.5 aw is equivalent to 50% relative humidity.
Form VII of (S)-2-(1-(9H-purin-6-ylamino)propyl)-5-fluoro-3-phenylquinazolin-4(3H)-one was a mixed water/ethanol solvate.

[2] = Dry and wet grinding experiments: conversion of Form I into Form II in slurry
Experimental: Form I of (S)-2-(1-(9H-purin-6-ylamino)propyl)-5-fluoro-3-phenylquinazolin-4(3H)-one was pre-processed using various grinding methods before forming a slurry in either acetone or THF and stirring at either room temperature, 22° C. or 30° C. As used in this Example, “enriched” describes a sample that contains substantially more Form II than Form I.

[3] = Conversion of ball milled Form I into Form II in acetone slurry (XRPD); settings: 10 g ball milled at 30 Hz for 10 minutes, stirred in 300 mL acetone at 28° C.
Experimental: Form I was prepared as described in Example 1. Form I solids were ball milled in batches for 10 minutes at 30 Hz. Samples were analyzed by XRPD. Table 1 below summarizes the amount of polymorphic Form II observed from conversion of polymorphic Form I. Additionally, 10 g of Form I was ball milled at 30 Hz for 10 minutes and stirred in 300 mL of acetone at 28° C.

[4] = Form I suspensions in acetone at different temperatures: form conversion; settings: magnetic stirring
Experimental: Form I of (S)-2-(1-(9H-purin-6-ylamino)propyl)-5-fluoro-3-phenylquinazolin-4(3H)-one was suspended in acetone at a concentration of 50 mg/mL, and stirred magnetically over a period of 5-6 days. Four experiments at different temperature were conducted.
Table 4 summarizes the reaction conditions and the amount of polymorphic forms observed for each of the four experiments. As used in this Example, “Enriched II” described a sample that contains substantially more Form II than Form I.

[5] = Effect of temperature on form conversion of solids (DSC, heating, XRPD)
Experimental: DSC indicated close melting points for each polymorph and a solid-solid transition in Form II at about 115° C. to produce Form I. To confirm this finding, […] of Form I of (S)-2-(1-(9H-purin-6-ylamino)propyl)-5-fluoro-3-phenylquinazolin-4(3H)-one was heated at 50° C., 60° C., 70° C., 80° C., 90° C., 100° C., 110° C. and 120° C. jacket temperature using Destiny for 22 hours.

[6] = Compression of Form I in hydraulic tablet press, XRPD
Experimental: Form I of (S)-2-(1-(9H-purin-6-ylamino)propyl)-5-fluoro-3-phenylquinazolin-4(3H)-one was subjected to high pressure in a hydraulic tablet press (ENERPAC Model P142 hydraulic press; #9166 0.275 inch punch) as shown in Table 3 below. The relaxation time is the time between compressions. A sample of the compressed solids was analyzed by XRPD and DSC. FIGS. 2A and 2B depict the XRPD and DSC patterns of polymorphic Form II.

[7] = Hydrate screen in IPA/water system: solubility of slurried Form I; settings: isopropyl alcohol/water mixture, organic solvent or mixture, thermodynamic from solid; for solubility: read-out: 15-16 Day Solubility
Experimental: as §1

[8] = Hydrate screen in IPA/water system: solid form by XRPD
Experimental: XRPD patterns were collected using a PANalytical X'Pert MPD Pro Powder X-Ray Diffractometer configured with reflectance stage with spinning, data acquisition range: 2-40 degrees 2θ, Copper (Cu) anode; Kα1/Kα2 radiation; tube current 40 mA; tube tension 45 kV; automatic divergence and anti-scatter slits. Samples were prepared for analysis by distributing solid material as a thin layer on a silicon holder. Each holder was mounted on a reflectance/transmittance stage and rotated during data acquisition.
as §1

[9] = IPA/water aw 0.2, room temperature, solid by XRPD Form I & II
[10] = IPA/water aw 0.3, room temperature, solid by XRPD Form I & II
[11] = IPA/water aw 0.4, room temperature, solid by XRPD Form I & II
[12] = IPA/water aw 0.5, room temperature, solid by XRPD Form I & II
[13] = IPA/water aw 0.6, room temperature, solid by XRPD Form I & II
[14] = Form I slurried in IPA/water aw 0.2, room temperature
[15] = Form I slurried in IPA/water aw 0.3, room temperature
[16] = Form I slurried in IPA/water aw 0.4, room temperature
[17] = Form I slurried in IPA/water aw 0.5, room temperature
[18] = Form I slurried in IPA/water aw 0.6, room temperature
[19] = Form I slurried in IPA/water aw 0.7, room temperature
[20] = Form I slurried in IPA/water aw 0.8, room temperature
[21] = Form I slurried in IPA/water aw 0.9, room temperature

CC[C@H](Nc1ncnc2[nH]cnc12)c1nc2cccc(F)c2c(=O)n1-c1ccccc1 [Form I, (S)-2-(1-(9H-purin-6-ylamino)propyl)-5-fluoro-3-phenylquinazolin-4(3H)-one]
Form (solid form after slurry) ([1]; Form I slurried in ethanol/water aw 0.9, several days, room temperature): I & VII | Form conversion in ethanol/water system ([1]; water activity 0.5 and 0.6, room temperature (data not shown in Table 6)): no conversion | Form conversion in ethanol/water system ([1]; water activity from 0.2 to 0.4, room temperature (data not shown in Table 6)): slowly converted to Form II | Form II content ([2]; 0.2 g, dry/wet grinding, acetone slurry, r.t., magnetic stirring, after 1 day): Enriched after 1 day | Form II content ([2]; 0.2 g, dry/wet grinding, acetone slurry, r.t., magnetic stirring, after 2 days): Highly enriched after 2 days | Form II content ([2]; 1 g, dry/wet grinding, acetone slurry, r.t., magnetic stirring, after 1 week): Trace amount after 1 week | Form II content ([2]; 1 g, high shear mixer (dry), THF slurry, r.t., magnetic stirring, after 1 day): Trace amount after 1 day | Form II content ([2]; 1 g, high shear mixer (dry), acetone slurry, r.t., magnetic stirring, after 1 day): Trace amount after 1 day | Form II content ([2]; 1 g, jet milled, acetone slurry, 22 ° C., magnetic stirring, after 1 day): Small amount after 1 day | Form II content ([2]; 1 g, jet milled, acetone slurry, 22 ° C., magnetic stirring, after 4 days): Enriched after 4 days | Form II content ([2]; 5 g, high shear wet mill, acetone slurry, 30 ° C., overhead stirring, after 3 days): Undetectable after 3 days | Form II content ([2]; 20 g, dry grinding, acetone slurry, 30 ° C., overhead stirring, after 3 days): Undetectable after 3 days | conversion of Form I into Form II ([3]; after 18 hours): about 50% | conversion of Form I into Form II ([3]; after 40 hours): about 90% | Form observed after suspension in acetone ([4]; 50 mg/mL, 30 ° C., suspension time 5 days): Enriched II | Form observed after suspension in acetone ([4]; 51 mg/mL, 27 ° C., suspension time 5 days): Enriched II | Form observed after suspension in acetone ([4]; 52 mg/mL, 33 ° C., suspension time 6 days): Form I | Form observed after suspension in acetone ([4]; 52 mg/mL, 37 ° C., suspension time 6 days): Form I | temperature at which form conversion of heated solids was observed ([5]; solids heated at 50-120° C. jacket temperature for 22 hours, XRPD (FIG. 6)): around 90 °C | XRPD (forms observed) ([6]; 163 mg, 2000 psi, 5 min, relaxation time 72 hours): I & II (~1:1) | XRPD (forms observed) ([6]; 164 mg, 3000 psi, 5 min, relaxation time 2 hours): I & II (~1:1) | XRPD (forms observed) ([6]; 167 mg, 2000 psi, 10 min, relaxation time 72 hours): I & II (~1:1) | XRPD (forms observed) ([6]; 168 mg, 3000 psi, 10 min, relaxation time 2 hours): I & II (~1:1) | XRPD (forms observed) ([6]; 171 mg, 3000 psi, 60 min, relaxation time 72 hours): I & II (excess | XRPD (forms observed) ([6]; amount NA, atm pressure, no compression): Form I & | conversion of Form I to Form II ([6]; compressed at 3000 psi for 60 minutes (FIG. 5C)): over 50% | XRPD (forms observed) ([6]; ~150 mg, 1000 psi, <0.5 min, relaxation time 24 hours): Form I and II | XRPD (forms observed) ([6]; ~150 mg, atm pressure, no compression): Form I and II | XRPD (forms observed) ([6]; ~160 mg, 4500 psi, <0.5 min): Form I and II | solubility at 48 h [7, 9]: 24 mg/mL (≈ 57.8 mM) | solubility [7, 9]: 20 mg/mL (≈ 48.1 mM) | solubility at 48 h [7, 10]: 19 mg/mL (≈ 45.7 mM) | solubility [7, 10]: 19 mg/mL (≈ 45.7 mM) | solubility at 48 h [7, 11]: 18 mg/mL (≈ 43.3 mM) | solubility [7, 11]: 20 mg/mL (≈ 48.1 mM) | solubility at 48 h [7, 12]: 23 mg/mL (≈ 55.4 mM) | solubility [7, 12]: 20 mg/mL (≈ 48.1 mM) | solubility at 48 h [7, 13]: 23 mg/mL (≈ 55.4 mM) | solubility [7, 13]: 24 mg/mL (≈ 57.8 mM) | solubility at 48 h ([7]; IPA/water aw 0.7, room temperature, solid by XRPD Form III): 9.8 mg/mL (≈ 23.6 mM) | solubility at 48 h ([7]; IPA/water aw 0.8, room temperature, solid by XRPD Form III): 11 mg/mL (≈ 26.5 mM) | 15-16 Day XRPD (solid form) [8, 14]: Form I & II | 48 Hour XRPD (solid form) [8, 14]: Form I & II | 15-16 Day XRPD (solid form) [8, 15]: Form I & II | 48 Hour XRPD (solid form) [8, 15]: Form I & II | 15-16 Day XRPD (solid form) [8, 16]: Form I & II | 48 Hour XRPD (solid form) [8, 16]: Form I & II | 15-16 Day XRPD (solid form) [8, 17]: Form I & II | 48 Hour XRPD (solid form) [8, 17]: Form I & II | 15-16 Day XRPD (solid form) [8, 18]: Form I & II | 48 Hour XRPD (solid form) [8, 18]: Form I & II | 15-16 Day XRPD (solid form) [8, 19]: Form III | 48 Hour XRPD (solid form) [8, 19]: Form III | 15-16 Day XRPD (solid form) [8, 20]: Form III | 48 Hour XRPD (solid form) [8, 20]: Form III | 15-16 Day XRPD (solid form) [8, 21]: Form III | 48 Hour XRPD (solid form) [8, 21]: Form III

CC[C@H](Nc1ncnc2[nH]cnc12)c1nc2cccc(F)c2c(=O)n1-c1ccccc1 [Form II, (S)-2-(1-(9H-purin-6-ylamino)propyl)-5-fluoro-3-phenylquinazolin-4(3H)-one]
solid-solid transition temperature (to produce Form I) ([5]; by DSC): about 115 °C
